{
  "source": "patent US10251845B2",
  "about": "“Fatty acid cysteamine conjugates and their use as activators of autophagy” (Catabasis Pharmaceuticals, Inc., priority 2014, dated 2019)",
  "key": {"CCL2": {"test_system": "CCL2", "experiment": "RT-PCR of CCL2 mRNA in LPS-stimulated THP-1 cells", "type": "cell-based", "conditions": "25 μM, LPS stimulation", "method": "THP-1 cells were obtained from ATCC® TIB202. THP-1 cells were maintained in RPMI1640 (Gibco® RPMI 1640) supplemented with 10% fetal bovine serum. DMEM (#11095) and fetal bovine serum (low endotoxin grade) (#10437) was obtained from Invitrogen.\nCompounds II-3 and I-1 were first solubilized in 100% DMSO as 50 mM solution, and then diluted 1 to 200 in 1% BSA as a 10× stock solution of […], and series stock dilution (1 to 2 dilution) were carried out as needed. The 10× stock solution were added to the cell media and cells were incubated for 24 hours at 37° C. For LPS stimulation in THP-1 cells, compounds were added to the cell media for 6 hours at and at the end of 4 hours, 50 μg/ml final concentration of LPS (Sigma L3024) was added and cells were incubated for 2 hours. […] The total RNA was harvested, and the relative mRNA expression levels were assessed via RT-PCR with HPRT as the internal control. […] Significance was determined by student's t-test in comparison to control.\nTotal RNA was collected using RNeasy Plus Mini Kit (Qiagen #74136) and cDNA generated using SuperScriptIII (Invitrogen #18080-044) with random hexamers following the manufacturer's protocol. Relative mRNA expression levels were determined using TaqMan probes (Applied Biosystems, using the recommended best primer pairs) with HPRT (hypoxanthine phosphoryltransferase) as the internal control. […]"}, "[1]": {"experiment": "Oral cannulated rat PK study (portal and jugular vein)", "type": "in vivo, Sprague Dawley rats", "conditions": "for AUC(0-t) / Cmax: Sprague Dawley", "description": "The compounds of the invention were solubilized in a mixture of excipients consisting 40% Tween, 50% Peceol, 10% PEG400 and diluted with water to form a self-emulsifying aqueous mixture for oral administration to animals. For this study, Sprague Dawley rats that have been surgically implanted with indwelling jugular vein cannula (JVC) and portal vein cannula (PVC) were used (Agilux, Worcester, Mass.). This approach using double-cannulated rats allowed the measurement of the drug concentration that was delivered in the portal vein as well as the drug concentration that was present in the peripheral. For the PK study, serial blood collection was carried out at both the portal and jugular vein at the following time points: 10, 20, 40 min and 1, 2, 4 and 6 hours post dose. The bioanalytical portion of the PK study was carried out using an LC/MS/MS system (Agilent Model No: HPLC: 1200, MS: 6410) and analyzed with the appropriate software (WinNonlin Phoenix 64 6.3.0 395)."}, "LC3-II/LC3-I": {"test_system": "LC3-II/LC3-I", "experiment": "In vivo autophagy activation in mouse lung tissues", "conditions": "mice, 100 mg/kg po BID 3.5 days; p=0.04", "method": "In order to evaluate for in vivo autophagy activation, nave male C57BL/6 mice were dosed orally with compound II-3 (100 mg/kg, BID, 3.5 days). One hour after the last dose, lung tissues and plasma were collected to analyze for drug concentration and autophagy biomarkers. As discussed in earlier examples, the ratio of LC3-II to LC3-I was used as autophagy biomarker. When compound II-3 was dosed orally, the parent compound (i.e. II-3) and a major metabolite (i.e. compound I-1) was detected both in the plasma and lung tissues. One hour after the last dose, the plasma concentration of the parent compound II-3 was 143.0±52.35 ng/mL and the corresponding metabolite I-1 was 741.37±170.2 ng/mL. At this time point, the mouse lung tissue concentration of the parent compound II-3 was 536.48±24.01 ng/g. The metabolite I-1 was also detected in the lung tissues, at a concentration of 411.48±164.0 ng/g. Compound II-3 was able to induce autophagy at the given dose of 100 mg/kg and the 22% increase in the ratio of LC3-II to LC3-I in the isolated lung tissues was statistically significant (p=0.04, FIG. 12)."}},
  "note": "Like-named read-outs stand apart in the source and are kept apart here.",
  "data": [
    {"smiles": "CC/C=C\\C/C=C\\C/C=C\\C/C=C\\C/C=C\\C/C=C\\CCC(=O)NCCSSC(C)(C)CNC(=O)c1cccnc1", "note": "[II-3, N-(2-((2-((4Z,7Z,10Z,13Z,16Z,19Z)-docosa-4,7,10,13,16,19-hexaenamido)ethyl)disulfanyl)-2-methylpropyl)nicotinamide]", "values": [
      {"measurement": "CCL2 mRNA level", "setting": "CCL2", "value": "marked reduction"},
      {"measurement": "AUC(0-t)", "setting": "[1]; jugular vein blood (peripheral), rat, oral, systemic circulation (jugular vein), read-out: peripheral AUClast", "value": "0.3 ± 0.103", "unit": "µg·h/mL"},
      {"measurement": "Cmax", "setting": "[1]; jugular vein blood (peripheral), rat, oral, systemic circulation (jugular vein), read-out: peripheral Cmax", "value": "0.102 ± 0.0169", "unit": "µg/mL"},
      {"measurement": "AUC(0-t)", "setting": "[1]; portal vein blood, rat, oral, portal vein, read-out: portal AUClast", "value": "0.679 ± 0.226", "unit": "µg·h/mL"},
      {"measurement": "Cmax", "setting": "[1]; portal vein blood, rat, oral, portal vein, read-out: portal Cmax", "value": "0.331 ± 0.12", "unit": "µg/mL"},
      {"measurement": "increase in the AUC, II-3 vs II-2", "setting": "[1]; dosed orally to rats, Example 23", "value": 100, "unit": "fold"},
      {"measurement": "peripheral Cmax of parent II-3 relative to parent II-2", "setting": "[1]; rat, oral", "value": 100, "unit": "fold"},
      {"measurement": "resistance to first pass metabolism", "setting": "[1]; rat, oral", "value": "more resistant"},
      {"measurement": "peripheral AUClast", "setting": "[1]; rat, oral, as restated in Example 23", "value": 0.102, "unit": "µg·h/mL"},
      {"measurement": "oral exposure in the rat compared with II-2", "setting": "[1]; summary of Example 18", "value": "better oral exposure"},
      {"measurement": "increase in the ratio of LC3-II to LC3-I in the isolated lung tissues", "setting": "LC3-II/LC3-I", "value": 22, "unit": "%"}
    ]}
  ]
}
